The values below come from US11541050B2, “Pyrimidine derivatives for the treatment of viral infections” (JANSSEN SCIENCES IRELAND UC, priority 2011, dated 2023).

Structures are written as SMILES. Where only a bound is given, the exact number is not on record here.

In test [1] the test system is HCV replicon in Huh-7 luc/neo cells. Description: Suppression of HCV replicon replication by conditioned media from compound-treated PBMC. In kind it is cell-based, HCV type 1 b. Conditions: Hepatitis C virus, Huh-7; read-out: PBMC-HUH7_EC50. The procedure, abridged:
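Readout is firefly luciferase from an HCV genotype 1b NS3-NS5B bicistronic replicon in Huh-7 cells, measured 24 h after adding conditioned medium. That medium came from overnight culture of compound-treated PBMC (2×10^5/well, human AB serum, at least two donors). Interferon α-2a was the reference.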
In general terms: In antiviral work, replicon cells carry a viral genome segment that copies itself.

In test [2] the test system is human TLR7 mutant sequence comprising a deletion in the second leucine-rich repeat. The test can be described thus: TLR7 cellular NFκB-luc reporter assay, mutant TLR7 with deletion in the second leucine-rich repeat. In kind it is cell-based. Details: unit not given here. As to conditions: lowest effective concentration. The procedure, abridged:
(§1)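 HEK293 cells transiently co-transfected with CMV-driven mutant TLR7 or TLR8 plasmid plus NFκB-luc reporter, cultured 48 h at 37 °C, then exposed to compound for 6 h at 37 °C, 5% CO2. Luciferase luminescence measured; dose-response curves from quadruplicates.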
Background: In a reporter assay the amount or activity of a reporter protein is the signal.

In test [3] the test system is human TLR8 mutant sequence comprising a deletion in the second leucine-rich repeat. The test can be described thus: TLR8 cellular NFκB-luc reporter assay, mutant TLR8 with deletion in the second leucine-rich repeat. In kind it is cell-based. Further details: unit not given here. As to conditions: lowest effective concentration. The procedure, abridged: as §1
For test [4], the target named is T1, human TLR8 (wild type sequence) (Homo sapiens, UniProt Q9NR97).
T1 construct: expressed in transfected cells; host or cells: HEK293
T1 sequence (Q9NR97 27-1041): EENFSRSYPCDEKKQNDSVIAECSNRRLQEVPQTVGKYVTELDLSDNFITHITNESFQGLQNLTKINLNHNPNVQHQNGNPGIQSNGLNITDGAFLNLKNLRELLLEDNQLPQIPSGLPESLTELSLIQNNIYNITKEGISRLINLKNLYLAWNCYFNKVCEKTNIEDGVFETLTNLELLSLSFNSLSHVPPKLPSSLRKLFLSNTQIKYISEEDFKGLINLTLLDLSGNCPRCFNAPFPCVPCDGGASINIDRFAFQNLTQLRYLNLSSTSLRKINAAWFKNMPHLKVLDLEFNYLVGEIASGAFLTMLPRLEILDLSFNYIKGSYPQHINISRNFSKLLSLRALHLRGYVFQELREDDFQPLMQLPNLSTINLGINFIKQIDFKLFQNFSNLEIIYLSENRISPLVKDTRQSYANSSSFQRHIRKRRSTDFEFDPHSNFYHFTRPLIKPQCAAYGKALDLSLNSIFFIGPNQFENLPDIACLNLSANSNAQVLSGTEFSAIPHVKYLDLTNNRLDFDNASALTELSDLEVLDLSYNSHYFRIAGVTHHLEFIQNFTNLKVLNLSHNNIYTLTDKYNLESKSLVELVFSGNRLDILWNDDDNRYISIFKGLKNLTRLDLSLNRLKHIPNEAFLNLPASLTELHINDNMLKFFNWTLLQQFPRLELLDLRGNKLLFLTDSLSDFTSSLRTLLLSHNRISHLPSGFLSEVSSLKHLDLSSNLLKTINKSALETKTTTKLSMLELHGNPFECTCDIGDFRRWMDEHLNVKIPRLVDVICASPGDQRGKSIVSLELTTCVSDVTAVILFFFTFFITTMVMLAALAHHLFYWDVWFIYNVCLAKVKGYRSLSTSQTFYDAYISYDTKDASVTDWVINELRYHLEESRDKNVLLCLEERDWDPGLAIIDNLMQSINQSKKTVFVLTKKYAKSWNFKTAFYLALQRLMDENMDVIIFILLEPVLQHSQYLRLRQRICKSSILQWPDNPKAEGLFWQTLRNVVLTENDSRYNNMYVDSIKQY
The test can be described thus: TLR8 cellular NFκB-luc reporter assay, wild type TLR8. In kind it is cell-based. Details: unit not given here. As to conditions: lowest effective concentration, wild type TLR8 (compounds 1-73). The method, boiled down:
(§2)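 Luciferase readout followed 6 h of compound exposure at 37 °C, 5% CO2, with quadruplicate dose-response curves. The cells were HEK293 carrying an NFκB-luc reporter and either wild-type TLR7/TLR8 or a mutant with a second leucine-rich repeat deletion, expressed by 48 h transient transfection. LEC is the lowest concentration giving at least twofold over the assay SD.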

Test [5] deals with T2, human TLR7 (wild type sequence) (Homo sapiens, UniProt Q9NYK1).
T2 construct: expressed in transfected cells; host or cells: HEK293
T2 sequence (Q9NYK1 27-1049): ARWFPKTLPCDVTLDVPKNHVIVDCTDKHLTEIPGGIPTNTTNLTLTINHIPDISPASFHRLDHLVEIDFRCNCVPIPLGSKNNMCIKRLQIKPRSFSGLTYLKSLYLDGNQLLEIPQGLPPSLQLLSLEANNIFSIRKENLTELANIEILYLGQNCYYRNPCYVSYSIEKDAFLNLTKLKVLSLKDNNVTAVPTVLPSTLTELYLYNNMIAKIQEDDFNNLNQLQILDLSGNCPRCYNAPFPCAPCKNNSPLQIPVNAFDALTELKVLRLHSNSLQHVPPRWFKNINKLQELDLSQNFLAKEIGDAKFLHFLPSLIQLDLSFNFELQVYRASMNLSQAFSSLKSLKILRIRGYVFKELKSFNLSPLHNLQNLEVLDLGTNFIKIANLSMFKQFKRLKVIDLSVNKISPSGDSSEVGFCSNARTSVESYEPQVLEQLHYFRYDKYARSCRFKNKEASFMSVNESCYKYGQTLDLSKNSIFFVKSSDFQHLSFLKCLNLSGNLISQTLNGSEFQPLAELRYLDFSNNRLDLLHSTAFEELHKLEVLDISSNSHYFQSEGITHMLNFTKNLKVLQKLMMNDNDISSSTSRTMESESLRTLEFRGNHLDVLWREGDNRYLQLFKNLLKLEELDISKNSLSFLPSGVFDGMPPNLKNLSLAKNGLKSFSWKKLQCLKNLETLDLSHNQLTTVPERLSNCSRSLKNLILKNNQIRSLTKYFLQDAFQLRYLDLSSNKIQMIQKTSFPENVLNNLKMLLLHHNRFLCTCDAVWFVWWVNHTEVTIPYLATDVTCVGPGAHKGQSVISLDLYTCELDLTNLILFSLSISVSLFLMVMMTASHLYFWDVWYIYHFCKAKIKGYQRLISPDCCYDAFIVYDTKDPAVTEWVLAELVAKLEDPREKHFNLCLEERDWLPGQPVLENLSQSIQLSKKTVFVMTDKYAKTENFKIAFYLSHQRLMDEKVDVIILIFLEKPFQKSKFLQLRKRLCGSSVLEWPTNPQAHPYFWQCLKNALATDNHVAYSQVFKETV
Description: TLR7 cellular NFκB-luc reporter assay, wild type TLR7. As to conditions: lowest effective concentration, wild type TLR7. Details: unit not given here. In kind it is cell-based. The procedure, abridged:
as §2

Where [6] appears, read: TLR7 mutant with deletion in second leucine-rich repeat.
The mark [7] stands for this setting: TLR8 mutant with deletion in second leucine-rich repeat.

As for `CCCCNc1nc(N)ncc1OCCCc1ccc(OC)cc1` [Compound 2], the EC50 in test [1] amounted to 40 nM. For the same compound, the TLR7-dIRR2_LEC in test [2] (setting [6]) is 0.02. The compound further yielded a TLR8-dIRR2_LEC in test [3] (setting [7]) of 0.31. Besides, the TLR8-wt_LEC in test [4] is given as 1.34.
For `CCCCNc1nc(N)nc(C)c1Oc1ccccc1` [Compound 3], the EC50 in test [1] came to 10800 nM. Moreover, in test [2] (setting [6]), the TLR7-dIRR2_LEC is 21.69. The same compound yielded a TLR8-dIRR2_LEC in test [3] (setting [7]) of 1.66. In test [4], this compound yielded a TLR8-wt_LEC of 4.91.
For `CCCCNc1nc(N)ncc1OCc1ncc(C)c(OC)c1C` [Compound 6], in test [1], the EC50 was found to be 20 nM. Also, the TLR7-dIRR2_LEC in test [2] (setting [6]) is reported as 0.01. In addition, the TLR8-dIRR2_LEC in test [3] (setting [7]) is 0.10. For the same compound, the TLR8-wt_LEC in test [4] is on record as 0.16.
The matching figures for `CCCCNc1nc(N)nc(C)c1Oc1ccccc1OC` [Compound 7]: 3110 nM, 1.11, 3.03 and 5.84.
`CCCCNc1nc(N)ncc1OCc1ccccc1F` [Compound 8]: the EC50 in test [1] worked out at 370 nM. Besides, in test [2] (setting [6]), the TLR7-dIRR2_LEC is reported as 0.38. The TLR8-dIRR2_LEC in test [3] (setting [7]) was 0.81. Moreover, in test [4], the TLR8-wt_LEC is 1.88.
The matching figures for `CCCCNc1nc(N)ncc1OCCC(C)C` [Compound 9]: 9720 nM, 1.55, 9.70 and 19.00.
For `CCCCNc1nc(N)ncc1OCCCC` [Compound 10], in that order: 1580 nM, 1.28, 2.82 and 8.14.
The matching figures for `CCCCNc1nc(N)ncc1OCc1ccc(Cl)c(Cl)c1` [Compound 11]: 780 nM, 0.60, 3.50 and 4.52.
Consider `CCCCNc1nc(N)ncc1OCc1ccc(C(=O)OC)cc1` [Compound 12], for which the EC50 in test [1] amounted to 2760 nM. Besides, the TLR7-dIRR2_LEC in test [2] (setting [6]) worked out at 0.26. Further, the TLR8-dIRR2_LEC in test [3] (setting [7]) came out at 1.12. In test [4], this compound returned a TLR8-wt_LEC of 1.49.
For `CCCCNc1nc(N)ncc1OCCc1ccccc1` [Compound 13], in that order: 2530 nM, 2.26, 5.23 and 13.18.
As to `CCCCNc1nc(N)ncc1OCc1ccccc1C` [Compound 14], in test [1], the EC50 was 1810 nM. The TLR7-dIRR2_LEC in test [2] (setting [6]) came to 0.91. The compound also yielded a TLR8-dIRR2_LEC in test [3] (setting [7]) of 0.91. The same compound showed a TLR8-wt_LEC in test [4] of 4.92.
On to `CCCCNc1nc(N)ncc1OCc1ccccc1Cl` [Compound 15], for which the EC50 in test [1] came out at 170 nM. Further, the TLR7-dIRR2_LEC in test [2] (setting [6]) worked out at 0.17. Further, the TLR8-dIRR2_LEC in test [3] (setting [7]) is listed as 1.06. Moreover, the TLR8-wt_LEC in test [4] came out at 2.31.
The matching figures for `C=CCCOc1cnc(N)nc1NCCCC` [Compound 16]: 790 nM, 0.49, 0.59 and 2.68.
In test [2] (setting [6]), `CCCCNc1nc(N)ncc1OCC1CC1` [Compound 39] displayed a TLR7-dIRR2_LEC of 3.01. For the same compound, the TLR8-dIRR2_LEC in test [3] (setting [7]) was determined as 7.10. This compound also displayed a TLR8-wt_LEC in test [4] of 14.41.
For `CCCCCCCCOc1cnc(N)nc1NCCCC` [Compound 40], in that order: 2.69, over 25 and over 25.
As to `CCCCNc1nc(N)ncc1OCC(C)O` (stereo not shown) [Compound 290], the TLR7-dIRR2_LEC in test [2] is 9.110. Further, the TLR8-dIRR2_LEC in test [3] was 12.460. In test [5], this compound showed a TLR7-wt_LEC of over 25.
For `CCCC[C@@H](CCO)Nc1nc(N)ncc1OCc1ccncc1` [Compound 291], in that order: 0.407, 0.106 and 0.120.
For `CCC[C@@H](CCO)Nc1nc(N)ncc1OCc1ccccn1` [Compound 293], in that order: 0.530, 0.088 and 0.197.
For `CCCC[C@@H](CCO)Nc1nc(N)ncc1OCc1ccccn1` [Compound 294], in that order: 0.521, 0.042 and 0.133.
For the compound `CCCC[C@@H](CCO)Nc1nc(N)ncc1OCc1cccc(C)n1` [Compound 295], the TLR7-dIRR2_LEC in test [2] is 0.430. In test [3], this compound came in with a TLR8-dIRR2_LEC of 0.034. The TLR7-wt_LEC in test [5] is listed as 0.047.
For `CCCC[C@@H](CCO)Nc1nc(N)ncc1OCCOC(C)C` [Compound 296], in that order: 2.540, 0.310 and 0.664.
The compound `CCCC[C@@H](CCO)Nc1nc(N)ncc1OCc1nnn[nH]1` [Compound 297] displayed a TLR7-dIRR2_LEC in test [2] of over 25. The same compound returned a TLR8-dIRR2_LEC in test [3] of 2.540. In test [5], this compound displayed a TLR7-wt_LEC of 2.810.
For `CCCC[C@@H](CCO)Nc1nc(N)ncc1OCc1c[nH]nn1` [Compound 298], in that order: 2.840, 0.058 and 0.394.
For `CCCC[C@@H](C[C@@H](C)O)Nc1nc(N)ncc1OC` [Compound 300], in that order: 0.720, 0.475 and 1.740.
For `CCC[C@@H](CCO)Nc1nc(N)ncc1OCCOC(C)C` [Compound 301], in that order: 2.640, 0.534 and 1.170.
In turn, `CCC[C@@H](CCO)Nc1nc(N)ncc1OCc1ccncc1` [Compound 302] gave a TLR7-dIRR2_LEC in test [2] of 0.487. In test [3], this compound showed a TLR8-dIRR2_LEC of 0.070. Further, the TLR7-wt_LEC in test [5] was found to be 0.385.
